Data as given in ChEMBL document CHEMBL2074017, “Distinct characteristics of organic cation transporters, OCT1 and OCT2, in the basolateral membrane of renal tubules” (Pharm Res, 2001).

Assays:
[1] = target: T1, Solute carrier family 22 member 1 (Rattus norvegicus, UniProt Q63089); experiment: TP_TRANSPORTER: inhibition of TEA uptake in OCT1-expressing MDCK cells; type: functional, cell-based
T1 sequence (Q63089 whole entry): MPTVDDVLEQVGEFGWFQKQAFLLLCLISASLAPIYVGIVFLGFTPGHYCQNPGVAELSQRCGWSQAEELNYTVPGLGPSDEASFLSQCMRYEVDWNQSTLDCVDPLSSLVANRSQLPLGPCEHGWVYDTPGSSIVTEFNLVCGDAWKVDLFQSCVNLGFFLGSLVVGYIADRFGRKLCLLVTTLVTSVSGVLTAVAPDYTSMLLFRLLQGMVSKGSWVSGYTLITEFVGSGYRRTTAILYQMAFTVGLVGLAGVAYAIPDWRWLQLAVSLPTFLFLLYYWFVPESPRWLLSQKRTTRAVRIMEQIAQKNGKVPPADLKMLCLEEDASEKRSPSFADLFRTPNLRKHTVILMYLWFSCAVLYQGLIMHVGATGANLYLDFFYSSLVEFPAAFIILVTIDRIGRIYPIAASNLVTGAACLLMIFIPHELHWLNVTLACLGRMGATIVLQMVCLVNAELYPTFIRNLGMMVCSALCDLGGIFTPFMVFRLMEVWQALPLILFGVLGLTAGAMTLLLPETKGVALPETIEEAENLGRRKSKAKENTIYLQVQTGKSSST

[2] = target: T2, Solute carrier family 22 member 2 (Rattus norvegicus, UniProt Q9R0W2); experiment: TP_TRANSPORTER: inhibition of TEA uptake in OCT2-expressing MDCK cells; type: functional, cell-based
T2 sequence (Q9R0W2 whole entry): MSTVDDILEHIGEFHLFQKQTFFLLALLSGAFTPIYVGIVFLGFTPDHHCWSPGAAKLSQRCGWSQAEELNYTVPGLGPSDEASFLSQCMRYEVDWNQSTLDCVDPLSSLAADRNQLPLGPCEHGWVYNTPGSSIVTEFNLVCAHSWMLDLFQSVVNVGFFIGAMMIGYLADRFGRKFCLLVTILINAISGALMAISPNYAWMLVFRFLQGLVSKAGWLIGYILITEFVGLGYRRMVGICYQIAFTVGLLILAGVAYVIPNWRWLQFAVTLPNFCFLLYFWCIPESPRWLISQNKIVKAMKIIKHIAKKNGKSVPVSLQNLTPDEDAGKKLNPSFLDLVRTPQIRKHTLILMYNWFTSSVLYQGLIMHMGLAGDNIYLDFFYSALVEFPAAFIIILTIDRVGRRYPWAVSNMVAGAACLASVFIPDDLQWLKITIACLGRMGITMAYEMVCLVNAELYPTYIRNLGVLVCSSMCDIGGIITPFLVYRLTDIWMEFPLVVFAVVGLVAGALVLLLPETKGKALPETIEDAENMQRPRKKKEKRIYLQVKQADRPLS

[3] = target: T2, Solute carrier family 22 member 2; type: functional, cell-based, MDCK
[4] = target: T1, Solute carrier family 22 member 1; type: functional, cell-based, MDCK

SMILES | Ki [1] | Ki [2] | IC50 [3] | IC50 [4]
CC(C)N(CCC(C(N)=O)(c1ccccc1)c1ccccn1)C(C)C (stereo not given) [DISOPYRAMIDE] | 62 µM | 30 µM | – | –
C[N+](C)(C)CCO [CHOLINE] | – | – | 1450 µM | 1450 µM
CN(C)CCCN1c2ccccc2CCc2ccccc21 [IMIPRAMINE] | – | – | 9.9 µM | 16 µM
N=C(N)NC(=O)c1nc(Cl)c(N)nc1N [AMILORIDE] | 6.9 µM | 4.7 µM | – | –
CCCC[N+](CCCC)(CCCC)CCCC [TETRABUTHYLAMMONIUM] | – | – | 5.7 µM | 7.9 µM
CCN(CC)CCNC(=O)c1ccc(N)cc1 [PROCAINAMIDE] | – | 36 µM | – | –
NCCc1c[nH]c2ccc(O)cc12 [SEROTONIN] | 390 µM | 242 µM | – | –
NCCc1c[nH]cn1 [HISTAMINE] | 141 µM | 171 µM | – | –
CCC[N+](CCC)(CCC)CCC [TETRAPROPYLAMMONIUM] | – | – | 39 µM | 23 µM
CN(C)CCC(c1ccc(Cl)cc1)c1ccccn1 (stereo not given) [CHLORPHENIRAMINE] | – | – | 26 µM | 14 µM
CCCCC[N+](CCCCC)(CCCCC)CCCCC [TETRAPENTYLAMMONIUM] | – | – | 1.7 µM | 1.3 µM
Cc1ncc(C[n+]2csc(CCO)c2C)c(N)n1 [THIAMINE ION] | 736 µM | 646 µM | – | –
NCCc1ccc(O)c(O)c1 [DOPAMINE] | 603 µM | 347 µM | – | –
CCN(CC)CCNC(=O)c1ccc(NC(C)=O)cc1 [ACECAINIDE] | – | – | 5 µM | 8.8 µM
C[N+](C)(C)C [TETRAMETHYLAMMONIUM] | – | – | 1670 µM | –
CNC[C@H](O)c1ccc(O)c(O)c1 [EPINEPHRINE] | 1600 µM | 1190 µM | – | –
